Results taken from patent US6555108B1, “Implanting HSV-TK retrovirus producing cells to treat tumors” (priority 1990, dated 2003).
pIC50: −log10 of the molar value. “Also recorded” adds a separate entry of the source.

What was measured:
[1] = tested on: C6BAG and C6VIKWT cells; experiment: Growth of combinations of tumor cells in nude mice; type: in vivo
Method: (§1) FIG. 11: Growth of combinations of tumor cells in nude mice. Tumor cells were inoculated simultaneously in different combinations in a ratio of 1 to 10 (recipient (C6BAG) versus donors C6BU1(n=9), C6VIK (n=9) or C6VIKWT, (n=7)). After tumors reached 1 cm in diameter, animals were treated with PBS for 14 days and then maintained without treatment for an additional 4 days. Bars indicate standard error of the mean.
FIG. 12: Growth of combinations of tumor cells in nude mice. […] Bars indicate standard error of the mean.
Sequential injections of 10^5 C6BAG cells followed immediately by 106 C6BU1 cells, C6VIK cells, or C6VIKWT cells at the same injection site, were carried out as above using 20 animals for each combination. […] Tumor volume was assessed as the percentage increase over the volume at the beginning of treatment through 17 days.

[2] = tested on: C6BAG cells; experiment: Ganciclovir sensitivity, cell proliferation assay; conditions: even at 1000 nM ganciclovir
Method: (§3) Growth inhibition of C6VIK, C6VIKWT, C6BU1, C6BAG, C6BBAG, C6BAGWT and C6BWT cells by ganciclovir when treatment was begun the day after plating. Cell numbers were determined four days after plating. Cell growth is expressed as the percentage of cells with treatment compared to the number of cells without treatment (100%).
(§4) To measure the sensitivity of isolated cells, cells were plated in 24-well plates at a density of 10^4 cells per well. The next day, medium was replaced with medium containing ganciclovir (Cytovene, Burroughs Wellcome) at varying concentrations (0-1 μM) in quadruplicate. Four days later, cells were harvested using trypsin and counted using a cell counter (Coulter Electronics Ltd., Luton, United Kingdom). Cell growth is expressed as the percentage of cells compared to the number of cells without treatment (100%).

[3] = tested on: C6BAG and C6VIK cells; experiment: Growth of combinations of tumor cells in nude mice; type: in vivo; conditions: 14 day course of ganciclovir, 25 mg/kg twice a day intraperitoneally
Method: as §1
FIG. 12: Growth of combinations of tumor cells in nude mice. The same combinations of cells as in FIG. 11 were treated in parallel with 50 mg/kg/day ganciclovir for 14 days. *=p<0.01. Bars indicate standard error of the mean.
Sequential injections of 10^5 C6BAG cells followed immediately by 106 C6BU1 cells, C6VIK cells, or C6VIKWT cells at the same injection site, were carried out as above using 20 animals for each combination. After the tumors had reached 1 cm in diameter, ganciclovir treatment was begun for 14 days, 25 mg/kg twice a day intraperitoneally in half of each group, with the other half receiving PBS intraperitoneally as a control. Tumor volume was assessed as the percentage increase over the volume at the beginning of treatment through 17 days.

[4] = tested on: C6VIKWT cells
Method: Growth inhibition of C6VIK, C6VIKWT, C6BU1, C6BAG, C6BBAG, C6BAGWT and C6BWT cells by ganciclovir when treatment was begun the day after plating. Cell numbers were determined four days after plating. Cell growth is expressed as the percentage of cells with treatment compared to the number of cells without treatment (100%). Bars indicate standard error of the mean.
as §4

[5] = tested on: C6VIK-WT cells; experiment: Subcutaneous tumors in nude mice, GCV treatment (Example 3); type: in vivo; conditions: nude mice inoculated subcutaneously with C6VIK-WT cells
Description: (§2) Retroviral vectors can be used to transfer genes into the genome of dividing cells. In order to increase the efficiency of gene delivery and killing effect of ganciclovir, we developed a new packaging line (C6VIK-WT) by infecting C6VIK cells with an ecotropic wild-type retrovirus (MoMLV). […] (Clifton, N.J., Humana), pp. 177-219. Because tumor cells can migrate deep into brain parenchyme, they should be able to deliver the vector to tumor cells away from the tumor mass. In culture, 50% of C6VIK-WT cells were killed at 0.024 μM GCV, while it took 7.3 μM GCV to kill 50% of C6VIK cells. […] Presumably C6VIK-WT cells produce both wild-type retrovirus and retrovirus vectors containing the HSV-TK gene (neither of which are produced by C6VIK cells) and death of C6BAG cells might be mediated by retrovirus infection and/or self-generated GCV toxic products.

[6] = tested on: C6VIK-WT and C6BAG cells; experiment: as above; type: in vivo; conditions: nude mice inoculated subcutaneously with C6VIK-WT and C6BAG cells simultaneously
Description: as §2

[7] = tested on: C6VIK cells; experiment: Ganciclovir sensitivity in vivo, subrenal capsule implant; design: species or system rat; conditions: C6VIK subrenal capsule implants in rats; 20 mg/kg intraperitoneally daily; reassessed over 16-day period; two animals
Method: Parental and infected cells were tested for their dose-dependent sensitivity to ganciclovir in culture and in vivo following inoculation into the rat subrenal capsule.
Ganciclovir Sensitivity in vivo: Nine rats were implanted in the subrenal capsule with C6VIK cells. Four survived the procedure for further study. Tumors were measured 5 days after implantation. Two animals were treated with ganciclovir (20 mg/kg intraperitoneally daily) and two with saline daily. Tumor size was reassessed over a 16-day period.

[8] = tested on: C6BU1 (HSV-TK negative) cells; experiment: Ganciclovir sensitivity, cell proliferation assay; type: cell-based, rat; conditions: even at 1000 nM ganciclovir
Description: Bars indicate standard error of the mean.

[9] = tested on: C6VIKWT tumors
Method: The tumor growth rate (%) was calculated in comparison with the initial volume (100% at day 0). Tumors were treated with PBS (solid line) or with 50 mg/kg/day ganciclovir (dotted line). Bars indicate standard error of the mean.
C6VIKWT cells (5×10^5 cells in 200 μl media) were injected subcutaneously into the flanks of female nude mice (NCr/Sed, nu/nu; MGH breeding colony) (Ezzedine, Z. D., et al., New Biol. 3:608-614 (1991)). There were three treatment groups; 25 mg/kg ganciclovir intraperitoneally twice a day for 14 days, n=5; 25 mg/kg ganciclovir intraperitoneally once a day for 14 days, n=4; and 12.5 mg/kg ganciclovir intraperitoneally twice a day for 14 days, n=4. Ganciclovir therapy was begun when tumor size reached 1 cm in diameter as measured by calipers, by intraperitoneal injections up to 25 mg/kg daily for 14 days. […] Tumor volumes were measured biweekly during treatment over a 24 day period, and were expressed as a percentage compared to the volume at the time treatment was begun.

[10] = tested on: C6BBAG cells
Method: This analysis was carried out as in FIG. 5 except C6BBAG, which lack endogenous TK, were used instead of C6BAG.
(§5) Donor C6VIK or C6VIKWT cells were then added to the cultures at a ratio of 1:2 (5×10^4 recipient cells:10^5 donor cells). Control cultures consisted of C6BAG or C6BBAG cells alone, or C6BAG or C6BBAG cells co-plated with “donor” C6BU1 or C6BWT cells, after delay, as above. After 10 days ganciclovir was added at varying concentrations (0-300 μM) and cells were incubated for another 9-12 days with the drug. Cells were then fixed with 0.5% glutaraldehyde and stained histochemically for beta-galactosidase activity, as described (Price et al., Proc. Natl. Acad. Sci. USA 84:1141-1145 (1987)), and colonies were counted.

[11] = tested on: C6BBAG cells; experiment: Ganciclovir sensitivity, cell proliferation assay; conditions: even at 1000 nM ganciclovir
Method: as §3, §4

[12] = tested on: C6VIK cells; experiment: Ganciclovir killing in culture (Example 3); type: cell-based; conditions: Rattus norvegicus, read-out: GCV concentration to kill 50% of cells
Description: as §2

[13] = tested on: C6VIK-WT cells; experiment: Ganciclovir killing in culture (Example 3); type: cell-based; conditions: Rattus norvegicus, read-out: GCV concentration at which 50% of cells were killed
Description: as §2

[14] = tested on: C6 glioma cells and other cells infected with this retrovirus; conditions: cell culture studies, Moolten et al. 1990; cited from earlier work
[15] = tested on: C6BWT cells; experiment: Ganciclovir sensitivity, cell proliferation assay; conditions: even at 1000 nM ganciclovir
Method: as §3, §4

[16] = tested on: C6BAG cells; experiment: Delayed co-culture, ganciclovir sensitivity of recipient cells; conditions: C6BAG co-cultured with C6BU1 or C6BWT cells, ratio 1:2 (control)
Method: (§6) Seven days after C6BAG cells recipients were plated, C6BU1, C6BWT, C6VIK, or C6VIKWT cells (donors) were plated with them at a ratio of 1:2. Ganciclovir treatment was begun three days later and continued for 9-12 days. Cells were then stained for beta-galactosidase activity and only positive colonies were counted. Colony numbers are expressed as a percentage of those seen for parallel cultures without ganciclovir. Only survival of beta-galactosidase-positive colonies was scored. Studies were done in triplicate with less than 0.5% variability.
as §5

[17] = tested on: C6BAGWT and C6BWT lines; experiment: Ganciclovir sensitivity of colony formation; type: cell-based, rat; conditions: colony survival
Method: (§7) Ganciclovir treatment was begun 7 days after plating these same cell lines to determine the ganciclovir sensitivity of colony formation. Ganciclovir treatment was continued for 9-12 days and then colonies were stained and counted. Survival colonies are expressed as a percentage compared to the number of colonies without treatment (100%). Studies were done in triplicate with less than 0.5% variability.
(§8) To measure the ganciclovir sensitivity of colony formation, cells were plated in duplicate at a density of 500 cells per 25 cm^2 culture flask. Seven days later, ganciclovir was added at various concentrations (0, 0.1, 0.5, 1, 10, 50, 100, 300 μM) in quadruplicate and incubation was for 9-12 days, with medium changes every 3-5 days. Cells were then fixed with 100% methanol, and stained with Giemsa (Freshney, R. I., “Culture of Animal Cells,” in: A Manual of Basic Techniques, 2d ed., New York, Alan R. Liss, Inc., pp. 170-171 (1987)), and colonies ≧2 mm in diameter were counted.

[18] = tested on: C6BAG cells
Method: as §6, §5

[19] = tested on: C6BAG cells; experiment: Co-culture with C6VIK or C6VIK-WT, GCV treatment (Example 3); type: cell-based, rat; conditions: co-culture with C6VIK-WT versus C6VIK
Description: as §2

[20] = tested on: C6BAG cells; experiment: Simultaneous co-culture, ganciclovir sensitivity of recipient cells
Method: Simultaneous co-culture experiment with C6BAG cells as recipients and C6VIK and C6VIKWT cells as donors (1:100). Ganciclovir treatment was begun seven days after plating and continued for 14 days. […] Studies were done in triplicate with less than 0.5% variability.
Studies were done in triplicate with less than 0.5% variability.
For simultaneous co-culture experiments, 103 recipient cells, C6BAG or C6BBAG were plated together with 10^5 C6VIK or C6VIKWT donor cells, in duplicate. […] After seven days ganciclovir was added at varying concentrations (0 to 300 μM) and culture was processed as above. To assess the effects of the ratio of the donor cells to recipient cells, simultaneous co-culture experiments were also done varying the ratio of the donor cell, C6VIKWT, to the recipient cell, C6BAG, from 0.1 to 100.

[21] = tested on: C6VIKWT cells; conditions: colony survival; drug begun seven days after plating, 9-12 days
Method: as §7, §8

[22] = tested on: parental C6 cells; conditions: parental C6 subcutaneous tumors, Ezzedine et al. 1991; cited from earlier work
[23] = tested on: C6BAGWT cells; experiment: Ganciclovir sensitivity, cell proliferation assay; conditions: even at 1000 nM ganciclovir
Method: as §3, §4

[24] = tested on: C6VIK cells; experiment: Ganciclovir sensitivity, cell proliferation assay; conditions: Rattus norvegicus, 96 h, read-out: Fifty percent inhibition of growth
Method: as §3, §4

[25] = tested on: C6VIK cells; conditions: C6VIK subcutaneous tumors, Ezzedine et al. 1991; cited from earlier work

Nc1nc(O)c2ncn(COC(CO)CO)c2n1 [ganciclovir]
Tumor size compared to the other cell combinations ([1]; C6BAG:C6VIKWT 1:10, 14 day course of ganciclovir, 25 mg/kg twice a day intraperitoneally, 25 mg/kg): even greater decrease; also recorded: markedly reduced rate of tumor growth | Effect of a further ganciclovir course on regrowth ([1]; another two weeks of ganciclovir therapy): regrowth was not blocked | Histologic examination of tumors ([1]; day 17, after ganciclovir): extensive necrosis; also recorded: no residual tumor cells seen histologically | Tumor course after treatment ([1]; subsequent two-week period): slow regrowth | Inhibition of growth [2]: No substantial inhibition of growth | Tumor volume compared to C6BAG and C6BU1 tumors [3]: significant decrease in the tumor volume | pIC50 [4]: 9.52 | Tumor regression [5]: caused regression of tumors in most nude mice | Tumor regression [6]: caused regression of tumors in most nude mice | Tumor size after treatment versus before [7]: smaller after the treatment than before | Inhibition of growth [8]: No substantial inhibition of growth | Inhibition kinetics across three ganciclovir regimens ([9]; 50 mg/kg/day in two injections, 50 mg/kg/day in one injection, 25 mg/kg/day in two injections): no apparent difference in inhibition kinetics | Tumor course after treatment stopped ([9]; all 13 animals, treatment stopped after 14 days, next two weeks): slow regrowth of tumors | Tumor growth ([9]; ganciclovir for 14 days, begun at tumor size 1 cm in diameter): inhibited subsequent growth completely; also recorded: completely blocked tumor growth | pIC50 [10]: 4.52 | Inhibition of growth [11]: No substantial inhibition of growth | pIC50 [12]: 5.14 | pIC50 [13]: 7.62 | Ganciclovir concentration killing infected cells relative to uninfected cells (fold less) [14]: 100 fold | Inhibition of growth [15]: No substantial inhibition of growth | Sensitization of recipient cells [16]: no significant sensitization to ganciclovir was observed | Sensitivity compared with uninfected C6BAG and C6BU1 cells [17]: no significant difference in sensitivity | pIC50 [18]: 5.52 | Killing of C6BAG cells after co-culture and GCV treatment [19]: substantially more C6BAG cells were killed when co-cultured with C6VIK-WT than with C6VIK cells | Ganciclovir sensitivity of C6BAG cells with increasing numbers of C6VIKWT cells ([20]; 100 μM ganciclovir, ratios of 10 and 100): greater sensitivity | Sensitization of recipient cells, C6VIKWT versus C6VIK donors ([20]; simultaneous plating, ratio 1:100): greater sensitization of C6BAG cells to ganciclovir was seen in the presence of C6VIKWT cells | Ganciclovir sensitivity of C6BAG cells relative to delayed co-cultures ([20]; simultaneously plated co-cultures): ~10 fold | Sensitivity of C6VIKWT relative to parental C6VIK at the level of 50% surviving colonies [21]: 300 fold | Tumor growth [22]: had no effect on tumor growth | Inhibition of growth [23]: No substantial inhibition of growth | pIC50 [24]: 8.00 | Tumor growth [25]: inhibited tumor growth; also recorded: continued to grow at a slow rate
